Results taken from US20110028509A1, “Sulfonamides” (MERCK SERONO SA, priority 2008, published 2011).

Biological target: T1, CXCR3 (Homo sapiens, UniProt P49682)
T1 sequence (P49682 1-368): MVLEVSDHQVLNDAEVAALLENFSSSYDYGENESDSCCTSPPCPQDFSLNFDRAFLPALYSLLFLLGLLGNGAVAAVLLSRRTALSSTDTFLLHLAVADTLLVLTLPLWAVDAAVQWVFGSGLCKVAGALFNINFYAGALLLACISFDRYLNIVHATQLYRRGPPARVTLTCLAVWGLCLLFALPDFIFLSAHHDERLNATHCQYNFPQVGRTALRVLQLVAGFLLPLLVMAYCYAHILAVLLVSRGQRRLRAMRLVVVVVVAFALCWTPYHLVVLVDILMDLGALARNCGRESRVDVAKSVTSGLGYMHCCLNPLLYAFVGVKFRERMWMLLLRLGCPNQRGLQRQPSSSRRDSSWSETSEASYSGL
Experiment: CXCR3 Ca2+ mobilization (FLIPR), stable hCXCR3-CHO cell line, I-TAC stimulated
Type: cell-based
Design: host or cells: CHO cells stably expressing hCXCR3
Details: hCXCR3-CHO cells, I-TAC 100 nM stimulated Ca2+ response; read-out: Ca-ITAC
Procedure: Human chinese hamster ovary (CHO) cell line stably expressing hCXCR3 was purchased from Euroscreen (Belgium) and culture in HAM's F12 (Invitrogen) containing 10% heat inactivated fetal calf serum (Cancerra, Australia), 50 units ml−1 penicillin, 50 μml−1 streptomycin, (Invitrogen, USA) and 400 μg/ml geneticin (G418) (Calbiochem, San Diego), according to the manufacturer.
CXCR3Ca^2+ mobilization was measured using a stable hCXCR3—CHO cell line and a microtiter-plate based assay using FLIPR^TETRA™ (Molecular Devices). In more detail, cells were harvested and plated into black 384-well plates (Becton-Dickinson) at a density of 15 000 cells per well and grown in the incubator for 18 hours. On the next day the media was aspirated and replaced with the cell loading buffer (HBSS—(Invitrogen) based buffer containing calcium indicator and signal enhancer from a commercial Ca2+ assay kit (Becton Dickinson). The plates were incubated for 60 minutes in the incubator, the test compounds were added and the plates equilibrated for 20 minutes at room temperature.
Plates were placed into FLIPR and the CXCR3 agonist (I-TAC, 100 nM) stimulated fluorescence change was quantitated. The activity of CXCR3 antagonists was determined as percent of the CXCR3 ligand I-TAC in the absence of the test compounds (=100% activity).

Compound	IC50 [µM]
COc1ccc(S(=O)(=O)N(Cc2ccccc2)Cc2ccc(C(=O)NCc3ccccc3)cc2)cc1 [Example 31]	1.9
O=C(NCc1ccccc1)c1ccc(CN(Cc2ccccc2)S(=O)(=O)c2ccc(F)cc2)cc1 [Example 32]	3.9
O=C(NCc1ccccc1)c1ccc(CN(Cc2ccc(F)cc2)S(=O)(=O)c2ccc(Cl)cc2)cc1 [Example 34, 4-{[[(4-chlorophenyl)sulfonyl](4-fluorobenzyl)amino]methyl}-N-phenyl methyl benzamide]	1.8
COc1ccc(CN(Cc2ccc(C(=O)NCc3ccccc3)cc2)S(=O)(=O)c2ccc(Cl)cc2)cc1 [Example 35, 4-{[(4-Chloro-benzenesulfonyl)-(4-methoxybenzyl)-amino]-methyl}-N-phenyl methyl benzamide]	6
O=C(NCc1ccccc1)c1ccc(CN(Cc2ccccc2)S(=O)(=O)c2ccc(Cl)nc2)cc1 [Example 36]	0.15
COc1cccc(CN(Cc2ccc(C(=O)NCc3ccccc3)cc2)S(=O)(=O)c2ccc(Cl)cc2)c1 [Example 38, 4-{[(4-Chloro-benzenesulfonyl)-(3-methoxybenzyl)-amino]-methyl}-N-phenyl methyl benzamide]	10
O=C(NCC1CC1)c1ccc(CN(Cc2ccccn2)S(=O)(=O)c2ccc(Cl)c(Cl)c2)cc1 [Example 45]	13
O=C(NC1(c2ccccc2)CC1)c1ccc(CN(Cc2ccccn2)S(=O)(=O)c2ccc(Cl)c(Cl)c2)cc1 [Example 46]	0.705
CS(=O)(=O)NC(=O)c1ccc(CN(Cc2ccccn2)S(=O)(=O)c2ccc(Cl)cc2)cc1 [Example 48, N-(methanesulfonyl)-4{[[(4-chlorophenyl)sulfonyl](pyridin-2-ylmethyl)amino]methyl}benzamide]	8.3
O=C(NS(=O)(=O)C1CC1)c1ccc(CN(Cc2ccccn2)S(=O)(=O)c2ccc(Cl)cc2)cc1 [Example 49, N-(cyclopropanesulfonyl)-4-{[[(4-chlorophenyl)sulfonyl](pyridin-2-ylmethyl)amino]methyl}benzamide]	5.6
O=C(NS(=O)(=O)c1cccnc1)c1ccc(CN(Cc2ccccn2)S(=O)(=O)c2ccc(Cl)cc2)cc1 [Example 52, N-(3-pyridylsulfonyl)-4-{[[(4-chlorophenyl)sulfonyl](pyridin-2-ylmethyl)amino]methyl}benzamide]	0.285
CCS(=O)(=O)NC(=O)c1ccc(CN(Cc2ccccn2)S(=O)(=O)c2ccc(Cl)cc2)cc1 [Example 55, N-(ethanesulfonyl)-4-{[[(4-chlorophenyl)sulfonyl](pyridin-2-yl-methyl)amino]methyl}benzamide]	11
O=S(=O)(c1ccc(Cl)cc1)N(Cc1ccc(-c2nnn[nH]2)cc1)Cc1cc(Cl)ccc1F [Example 61, 4-chloro-N-(5-chloro-2-fluorobenzyl)-N-[4-(2H-tetrazol-5-yl)benzyl]benzene sulfonamide]	0.2
O=S(=O)(c1ccc(Cl)cc1)N(Cc1ccc(-c2nnn[nH]2)cc1)Cc1ccc(Cl)cc1F [Example 70, 4-chloro-N-(2-fluoro-4-chlorobenzyl)-N-[4-(2H-tetrazol-5yl)benzyl]benzene sulfonamide]	3
O=S(=O)(c1ccc(Cl)cc1Cl)N(Cc1ccc(-c2nnn[nH]2)cc1)Cc1ccccn1 [Example 78]	3
Cc1cc(S(=O)(=O)N(Cc2ccc(-c3nnn[nH]3)cc2)Cc2ccccn2)c(F)cc1Cl [Example 79]	4
CCOc1ccc(S(=O)(=O)N(Cc2ccc(C(=O)NC3(c4cccc(C#N)c4)CC3)cc2)Cc2ccccn2)cc1 [Example 85]	4
CCOc1ccc(S(=O)(=O)N(Cc2ccc(C(=O)NCC(C)c3ccccc3)cc2)Cc2ccccn2)cc1 (stereo not drawn) [Example 86]	1.7
CCOc1ccc(S(=O)(=O)N(Cc2ccc(C(=O)NCCc3ccc(S(N)(=O)=O)cc3)cc2)Cc2cccnc2)cc1 [Example 95]	2
O=S(=O)(c1ccc(Cl)cc1)N(Cc1ccc(-c2nnn[nH]2)cc1)Cc1ccccc1-c1ccccc1 [Example 103]	3.45
O=S(=O)(c1ccc(Cl)cc1)N(Cc1ccc(-c2nnn[nH]2)cc1)Cc1ccccc1Oc1ccc(F)cc1 [Example 104]	1
CCOc1ccc(S(=O)(=O)N(Cc2ccc(C(=O)N[C@H]3[C@@H]4CN(C(C)=O)C[C@@H]43)cc2)Cc2cccnc2)cc1 [Example 108]	1.8
N#Cc1ccc(S(=O)(=O)N(Cc2ccc(C(=O)NC3(c4cccc(C#N)c4)CC3)cc2)Cc2cccnc2)cc1 [Example 111]	1.5
CC(CNC(=O)c1ccc(CN(Cc2cccnc2)S(=O)(=O)c2ccc(C#N)cc2)cc1)c1ccccc1 (stereo not drawn) [Example 112]	1.25
O=S(=O)(c1ccc(OC(F)(F)F)cc1)N(Cc1ccccc1)Cc1ccc(-c2nnn[nH]2)cc1 [Example 115]	2
CCOc1ccc(S(=O)(=O)N(Cc2ccc(C(=O)N[C@H]3[C@@H]4CN(C(=O)c5ccc(OC(F)(F)F)cc5)C[C@@H]43)cc2)Cc2cccnc2)cc1 [Example 116]	2
CCOc1ccc(S(=O)(=O)N(Cc2ccc(C(=O)N[C@H]3[C@@H]4CN(C(=O)c5ccc(OC(F)(F)F)cc5)C[C@@H]43)cc2)Cc2ccccn2)cc1 [Example 117, 4-{[(4-Ethoxy-benzenesulfonyl)-pyridin-2-ylmethyl-amino]-methyl}-N-[(1S,5R,6S)-3-(4-trifluoromethoxy-benzoyl)-3-aza-bicyclo[3.1.0]hex-6-yl]-benzamide]	0.8
CCOc1ccc(C2(NC(=O)c3ccc(CN(Cc4ccccn4)S(=O)(=O)c4ccc(Cl)cc4)cc3)CC2)cc1 [Example 128]	0.85

Further lines, results first:

IC50 [µM]	Compound
2.5	CCOc1ccc(C2(NC(=O)c3ccc(CN(Cc4ccccn4)S(=O)(=O)c4ccc(C#N)cc4)cc3)CC2)cc1 [Example 129]
3	CCOc1ccc(C2(NC(=O)c3ccc(CN(Cc4ccccn4)S(=O)(=O)c4ccc(OCC)cc4)cc3)CC2)cc1 [Example 130]
5	O=C(NC1(c2ccc(OC(F)(F)F)cc2)CC1)c1ccc(CN(Cc2ccccn2)S(=O)(=O)c2ccc(Cl)cc2)cc1 [Example 131]
2	O=C(O)c1ccc(CNC(=O)c2ccc(CN(Cc3ccccn3)S(=O)(=O)c3ccc(Cl)cc3)cc2)cc1 [Example 133]
2	Cc1ccc(S(=O)(=O)N(Cc2ccc(-c3nnn[nH]3)cc2)Cc2ccccn2)cc1 [Example 139]
2	O=[N+]([O-])c1ccc(S(=O)(=O)N(Cc2ccc(-c3nnn[nH]3)cc2)Cc2ccccn2)cc1 [Example 140]
3	CC(C)(C)c1ccc(S(=O)(=O)N(Cc2ccc(-c3nnn[nH]3)cc2)Cc2ccccn2)cc1 [Example 141]
0.14	CCOC(=O)C1(NC(=O)c2ccc(CN(Cc3ccccn3)S(=O)(=O)c3ccc(C#N)cc3)cc2)CC1 [Example 144]
3	CN(C)c1ccc(CNC(=O)c2ccc(CN(Cc3ccccn3)S(=O)(=O)c3ccc(C#N)cc3)cc2)cn1 [Example 148]
0.15	O=C(NC(C(=O)O)c1ccccc1)c1ccc(CN(Cc2ccccn2)S(=O)(=O)c2ccc(Cl)cc2)cc1 (stereo not drawn) [Example 151]
0.75	O=C(N[C@H](C(=O)O)c1ccccc1)c1ccc(CN(Cc2ccccn2)S(=O)(=O)c2ccc(Cl)cc2)cc1 [Example 152]
2	O=C(N[C@H](Cc1ccccc1)C(=O)O)c1ccc(CN(Cc2ccccn2)S(=O)(=O)c2ccc(Cl)cc2)cc1 [Example 153]
4	O=C(N[C@@H](Cc1ccc(O)cc1)C(=O)O)c1ccc(CN(Cc2ccccn2)S(=O)(=O)c2ccc(Cl)cc2)cc1 [Example 154]
2	CCOC(=O)c1ccc(CN(Cc2cccnc2)S(=O)(=O)c2ccc(OCC)cc2)cc1 [Example 155]
1.9	CCOC(=O)c1ccc(CN(Cc2cccnc2)S(=O)(=O)c2ccc(C#N)cc2)cc1 [Example 156]
4	CCOC(=O)c1ccc(CN(Cc2cccnc2)S(=O)(=O)c2ccc(Cl)cc2)cc1 [Example 159]
1.1	O=S(=O)(c1cccc(Oc2ccccc2)c1)N(Cc1ccc(-c2nnn[nH]2)cc1)Cc1ccccn1 [Example 165]
3.33	C[C@H](c1ccc(NC(=O)C2(c3ccccc3)CC2)cc1)N(Cc1ccccn1)S(=O)(=O)c1ccc(Cl)cc1 [Example 168]
1.95	CC(c1ccc(-c2nnn[nH]2)cc1)N(Cc1ccccc1)S(=O)(=O)c1ccc(Cl)cc1 (stereo not drawn) [Example 171]
0.7	N#Cc1ccc(CN(Cc2ccccn2)S(=O)(=O)c2ccc([N+](=O)[O-])cc2)cc1 [Example 172]
0.4	N#Cc1ccc(CN(Cc2ccccn2)S(=O)(=O)c2ccccc2[N+](=O)[O-])cc1 [Example 173]
1.5	Cc1ccc(S(=O)(=O)N(Cc2ccc(C#N)cc2)Cc2ccccn2)cc1 [Example 174]
3.5	Cc1cccc(S(=O)(=O)N(Cc2ccc(C#N)cc2)Cc2ccccn2)c1 [Example 175]
